Measurements reported in BindingDB's records for doi:10.1002/cbic.200400135 (Max Planck Institute for Coal Research, 2004).

Legend:
Assay in all cases: Phosphatase Inhibition Assay
[1] = target: Dual specificity protein phosphatase 3 (Homo sapiens, UniProt P51452); details: pH 6.5; 37 °C
[2] = target: T1, M-phase inducer phosphatase 1 (Homo sapiens, UniProt P30304); details: pH 8; 37 °C
T1 sequence (P30304 whole entry): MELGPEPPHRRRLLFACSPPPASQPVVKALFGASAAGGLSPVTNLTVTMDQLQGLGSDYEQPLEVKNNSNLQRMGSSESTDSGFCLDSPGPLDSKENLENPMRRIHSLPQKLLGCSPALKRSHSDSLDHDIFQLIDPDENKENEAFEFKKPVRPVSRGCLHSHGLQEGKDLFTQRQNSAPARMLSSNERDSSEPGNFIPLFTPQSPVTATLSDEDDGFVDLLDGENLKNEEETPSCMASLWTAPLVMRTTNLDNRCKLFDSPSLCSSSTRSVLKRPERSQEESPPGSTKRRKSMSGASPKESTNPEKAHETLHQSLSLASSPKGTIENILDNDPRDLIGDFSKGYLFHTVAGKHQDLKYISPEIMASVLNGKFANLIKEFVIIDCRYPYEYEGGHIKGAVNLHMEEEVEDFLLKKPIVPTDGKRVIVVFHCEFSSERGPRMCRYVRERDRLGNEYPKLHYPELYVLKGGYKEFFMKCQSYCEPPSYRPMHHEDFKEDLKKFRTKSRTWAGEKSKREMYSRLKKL

[3] = target: T2, Tyrosine-protein phosphatase non-receptor type 1 (Homo sapiens, UniProt P18031); details: pH 7.2; 37 °C
T2 sequence (P18031 whole entry): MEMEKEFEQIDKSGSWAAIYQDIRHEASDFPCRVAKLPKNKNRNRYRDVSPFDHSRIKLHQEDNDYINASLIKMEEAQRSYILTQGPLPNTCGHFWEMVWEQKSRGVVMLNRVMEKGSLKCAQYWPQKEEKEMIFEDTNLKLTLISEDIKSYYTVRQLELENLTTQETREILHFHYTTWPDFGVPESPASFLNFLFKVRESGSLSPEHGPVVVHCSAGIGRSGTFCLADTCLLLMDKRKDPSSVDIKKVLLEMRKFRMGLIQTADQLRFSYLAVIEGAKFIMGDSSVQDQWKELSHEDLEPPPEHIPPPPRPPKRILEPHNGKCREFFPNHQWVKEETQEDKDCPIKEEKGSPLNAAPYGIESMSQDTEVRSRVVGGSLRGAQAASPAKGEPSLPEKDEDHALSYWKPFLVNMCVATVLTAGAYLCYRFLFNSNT

Sequence of Dual specificity protein phosphatase 3 (P51452 whole entry): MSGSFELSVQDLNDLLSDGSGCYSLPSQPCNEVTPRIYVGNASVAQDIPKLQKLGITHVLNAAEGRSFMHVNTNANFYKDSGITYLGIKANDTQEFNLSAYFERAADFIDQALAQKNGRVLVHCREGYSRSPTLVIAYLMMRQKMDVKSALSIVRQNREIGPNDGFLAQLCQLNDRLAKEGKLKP

SMILES | IC50 [1] [µM] | IC50 [2] [µM] | IC50 [3] [µM]
CCc1ccc(/C=C2\NC(=O)C=C2OC)[nH]1 [Acyclic analogue, 17] | > 50 | > 50 | > 50
C=CCCCCc1ccc(/C=C2\NC(=O)C=C2OC)[nH]1 [Acyclic analogue, 16] | 8 | > 50 | 46
COc1cc(-c2[nH]ccc2Cl)oc1C1=c2[nH]c3cc2[C@@H](C(C)C)[C@@H]1CCCCCCCC=3 [Roseophilin, 2] | 6 | 21 | 6
COC1=CC(=O)N/C1=C\c1ccc(CCCC/C=C/CCCCC(=O)O)[nH]1 [Acyclic analogue, 18] | 21 | > 50 | 16
C=CCCCCc1ccc(/C=C2\N=C(c3ccc[nH]3)C=C2OC)[nH]1 [Acyclic analogue, 13] | 11 | > 50 | 11
C/C(=C1\C=CC=N1)c1ccc(-c2[nH]ccc2Cl)o1 [3-chloro-2-(5-{1-[(2Z)-2H-pyrrol-2-ylidene]ethyl}furan-2-yl)-1H-pyrrole, 4] | 9 | 34 | 6
C=CCCCCc1ccc(/C=C2\N=C(c3ccc(CCCC=C)s3)C=C2OC)[nH]1 [Acyclic analogue, 15] | 39 | > 50 | 28
COC1=CC2=N/C1=C\c1ccc([nH]1)CCCC/C=C/CCCCCCCCCCC1=CC=C2O1 [Cyclic analogue, 8] | 41 | > 50 | 24
COC1=CC2=N/C1=C\c1ccc([nH]1)CCCC/C=C/CCCc1cccc2c1 [Cyclic analogue, 9] | 30 | > 50 | > 50
CC(C)[C@H]1c2cc3[nH]c2=C(c2ccc(-c4ccc[nH]4)o2)[C@@H]1CCCCCCCC=3 [Roseophilin analogue, 3] | 15 | > 50 | 10
COC1=CC2=N/C1=C\c1ccc([nH]1)CCCC/C=C/CCCC1=CC=C2O1 [Cyclic analogue, 7] | 28 | > 50 | 23
C/C(=C1\C=CC=N1)c1ccc(-c2ccc[nH]2)o1 | 4.9 | 40 | –
C=CCCCCc1ccc(/C=C2\N=C(c3ccc(CCCC=C)[nH]3)C=C2OC)[nH]1 [Acyclic analogue, 10] | > 50 | > 50 | > 50
C=CCCCCc1ccc(C=C2N=C(c3ccc(C(=O)CCC=C)[nH]3)C=C2OC)[nH]1 [Acyclic analogue, 11] | > 50 | > 50 | 32
COc1cc(-c2[nH]ccc2Cl)oc1C1=c2[nH]c3cc2[C@H](C(C)C)[C@H]1CCCCCCCC=3 | 32 | 28 | 38
C=CC/C=C(/C)c1ccc(C2=N/C(=C\c3ccc(CCCCC=C)[nH]3)C(OC)=C2)[nH]1 [Acyclic analogue, 12] | 9 | > 50 | 12
CCc1ccc(/C=C2\N=C(c3ccc[nH]3)C=C2OC)[nH]1 [Acyclic analogue, 14] | 21 | > 50 | 10
